Earlier results, collected in US20100260755A1, “IBUDILAST AND IMMUNOMODULATORS COMBINATION” (MediciNova, Inc., priority 2009, published 2010).

Key:
[1] = test system: experimental autoimmune encephalomyelitis; details: in vivo
[2] = test system: multiple sclerosis patients; details: daily injections, exacerbating-remitting MS
[3] = test system: T-cells isolated from peripheral blood of MS patients; details: in vitro

## Glatiramer acetate
[1]
  effect on experimental autoimmune encephalomyelitis (EAE): suppress
[2]
  exacerbations versus control patients: fewer exacerbations
  increases in disability status versus control patients: smaller increases
Glial cells
  production of inflammatory mediators TNF-α, nitric oxide, superoxide by glial cells: effectively suppress
[3]
  IL-5 and IL-13 cytokine secretion: induces
